Measurements: patent publication US20250230193A1, “CYCLIC COMPOUND HAVING SELECTIVE KRAS INHIBITORY EFFECT ON HRAS AND NRAS” (CHUGAI SEIYAKU KABUSHIKI KAISHA, priority 2022, published 2025)
Read-outs that look alike come from different tables or passages of the source.

What was measured:
[1] = target: GDP-bound NRAS wild-type protein (Homo sapiens, UniProt P01111); test: Binding to NRAS by surface plasmon resonance (SPR), Single Cycle Kinetics; conditions: SPR; for NRAS/KRAS (ratio of KD value for GDP-bound NRAS wild-type protein to KD value for KRAS): KD ratio class
[2] = system: human lung cancer strain NCI-H441
[3] = target: GDP-bound KRAS wild-type protein (Homo sapiens, UniProt P01116); test: Binding to KRAS by surface plasmon resonance (SPR), Single Cycle Kinetics; conditions: GDP-bound KRAS wild-type protein
[4] = target: GDP-bound HRAS wild-type protein (Homo sapiens, UniProt P01112); test: Binding to HRAS by surface plasmon resonance (SPR), Single Cycle Kinetics; conditions: SPR; for HRAS/KRAS (ratio of KD value for GDP-bound HRAS wild-type protein to KD value for KRAS): KD ratio class
[5] = read-out: NCI-H441 IC50, NCI-H441 cells, 4 days, CellTiter-Glo
[6] = SPR Single Cycle Kinetics, 1:1 binding model

Sequence of GDP-bound NRAS wild-type protein (P01111 whole entry): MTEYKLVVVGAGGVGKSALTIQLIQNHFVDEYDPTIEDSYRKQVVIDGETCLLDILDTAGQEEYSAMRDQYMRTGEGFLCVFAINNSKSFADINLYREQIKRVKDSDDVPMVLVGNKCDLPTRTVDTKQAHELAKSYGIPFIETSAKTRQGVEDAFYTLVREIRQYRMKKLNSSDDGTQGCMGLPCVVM
Sequence of GDP-bound HRAS wild-type protein (P01112 whole entry): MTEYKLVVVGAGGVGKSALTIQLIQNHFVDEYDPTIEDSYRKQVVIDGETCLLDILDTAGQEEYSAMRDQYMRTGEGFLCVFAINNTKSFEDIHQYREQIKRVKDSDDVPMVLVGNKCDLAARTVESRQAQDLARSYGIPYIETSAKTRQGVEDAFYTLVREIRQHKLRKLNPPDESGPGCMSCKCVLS

| Compound | IC50 [2, 5] [nM] | Kd ([3]; SPR, Single Cycle Kinetics) [nM] | IC50 [2] [nM] | Kd [3, 6] [nM] | NRAS/KRAS (ratio of KD value for GDP-bound NRAS wild-type protein to KD value for KRAS) [1] | HRAS/KRAS (ratio of KD value for GDP-bound HRAS wild-type protein to KD value for KRAS) [4] | NRAS/KRAS (ratio of KD value for NRAS to KD value for KRAS) ([1]; KD ratio, GDP-bound NRAS wild-type vs GDP-bound KRAS wild-type) | HRAS/KRAS (ratio of KD value for HRAS to KD value for KRAS) ([4]; KD ratio, GDP-bound HRAS wild-type vs GDP-bound KRAS wild-type) | NRAS/KRAS (ratio of KD value with respect to GDP-bound NRAS wild-type protein to KD value with respect to KRAS) ([1]; KD ratio NRAS/KRAS, GDP-bound wild-type proteins) | HRAS/KRAS (ratio of KD value with respect to GDP-bound HRAS wild-type protein to KD value with respect to KRAS) ([4]; KD ratio HRAS/KRAS, GDP-bound wild-type proteins) |
| --- | --- | --- | --- | --- | --- | --- | --- | --- | --- | --- |
| CCO[C@@H]1C[C@H]2C(=O)NC3(CCC3)C(=O)N(C)[C@@H](C(CC)CC)C(=O)N(C)C(C(C)C)CC(=O)N(C)[C@@H](CC)C(=O)N[C@@H]([C@@H](C)CC)C(=O)N(C)CC(=O)N(C)[C@H]3C/C=C\CCN(C3=O)[C@@H](Cc3ccc(C(F)(F)F)cc3)C(=O)N(C)CC(=O)N[C@@H](CCc3cc(F)c(C(F)(F)F)c(F)c3)C(=O)N2C1 (some centres unmarked) [PP1589] | 86.6 | 1.8 | – | – | A (a compound having 10 or more and less than 20 is denoted as A) | A (a compound having 10 or more and less than 20 is denoted as A) | – | – | – | – |
| CCO[C@@H]1C[C@H]2C(=O)NC3(CCC3)C(=O)N(C)[C@@H](C(CC)CC)C(=O)N(C)C(C(C)C)CC(=O)N(C)[C@@H](CC3CC3)C(=O)N[C@@H]([C@@H](C)CC)C(=O)N(C)CC(=O)N(C)[C@H]3C/C=C\CCN(C3=O)[C@@H](Cc3ccc(C(F)(F)F)cc3)C(=O)N(C)CC(=O)N[C@@H](CCc3cc(F)c(C(F)(F)F)c(F)c3)C(=O)N2C1 (some centres unmarked) [PP1595] | 64.6 | 2.3 | – | – | A (a compound having 10 or more and less than 20 is denoted as A) | A (a compound having 10 or more and less than 20 is denoted as A) | – | – | – | – |
| CCO[C@@H]1C[C@H]2C(=O)NC3(CC(F)(F)C3)C(=O)N(C)[C@@H](C3CCCC3)C(=O)N(C)C(C(C)C)CC(=O)N(C)[C@@H](CC3CC3)C(=O)N[C@@H]([C@@H](C)CC)C(=O)N(C)CC(=O)N(C)[C@H]3C/C=C\CCN(C3=O)[C@@H](Cc3ccc(C(F)(F)F)cc3)C(=O)N(C)CC(=O)N[C@@H](CCc3cc(F)c(C(F)(F)F)c(F)c3)C(=O)N2C1 (some centres unmarked) [PP1598] | 36.6 | 0.76 | – | – | A (a compound having 10 or more and less than 20 is denoted as A) | A (a compound having 10 or more and less than 20 is denoted as A) | – | – | – | – |

Now from value to compound, other results behind:

| IC50 [2, 5] [nM] | Kd ([3]; SPR, Single Cycle Kinetics) [nM] | IC50 [2] [nM] | Kd [3, 6] [nM] | Compound | NRAS/KRAS (ratio of KD value for GDP-bound NRAS wild-type protein to KD value for KRAS) [1] | HRAS/KRAS (ratio of KD value for GDP-bound HRAS wild-type protein to KD value for KRAS) [4] | NRAS/KRAS (ratio of KD value for NRAS to KD value for KRAS) ([1]; KD ratio, GDP-bound NRAS wild-type vs GDP-bound KRAS wild-type) | HRAS/KRAS (ratio of KD value for HRAS to KD value for KRAS) ([4]; KD ratio, GDP-bound HRAS wild-type vs GDP-bound KRAS wild-type) | NRAS/KRAS (ratio of KD value with respect to GDP-bound NRAS wild-type protein to KD value with respect to KRAS) ([1]; KD ratio NRAS/KRAS, GDP-bound wild-type proteins) | HRAS/KRAS (ratio of KD value with respect to GDP-bound HRAS wild-type protein to KD value with respect to KRAS) ([4]; KD ratio HRAS/KRAS, GDP-bound wild-type proteins) |
| --- | --- | --- | --- | --- | --- | --- | --- | --- | --- | --- |
| 13.7 | 0.099 | – | – | CC[C@H](C)[C@@H]1NC(=O)[C@H](CC2CC2)N(C)C(=O)C[C@@H](C(=O)N(C)C)N(C)C(=O)[C@H](C2CCCC2)N(C)C(=O)C2(CCCC2)NC(=O)[C@@H]2C[C@H](C)CN2C(=O)[C@H](CCc2cc(F)c(C(F)(F)F)c(F)c2)NC(=O)CN(C)C(=O)[C@H](Cc2ccc(C(F)(F)F)cc2)N2CC/C=C\C[C@@H](C2=O)N(C)C(=O)CN(C)C1=O [PP1511] | AA (a compound having 20 or more is denoted as AA) | A (a compound having 10 or more and less than 20 is denoted as A) | – | – | – | – |
| 85.5 | 0.76 | – | – | CCO[C@@H]1C[C@H]2C(=O)NC3(CC(F)(F)C3)C(=O)N(C)[C@@H](C3CCCC3)C(=O)N(C)C(C3CCCCC3)CC(=O)N(C)[C@@H](COC)C(=O)N[C@@H]([C@@H](C)CC)C(=O)N(C)CC(=O)N(C)[C@H]3C/C=C\CCN(C3=O)[C@@H](Cc3ccc(C(F)(F)F)cc3)C(=O)N(C)CC(=O)N[C@@H](CCc3cc(F)c(C(F)(F)F)c(F)c3)C(=O)N2C1 (some centres unmarked) [PP1586] | A (a compound having 10 or more and less than 20 is denoted as A) | A (a compound having 10 or more and less than 20 is denoted as A) | – | – | – | – |
| 144 | 4.3 | – | – | CCO[C@@H]1C[C@H]2C(=O)NC3(CC(C)(C)C3)C(=O)N(C)[C@@H](C(CC)CC)C(=O)N(C)C(C(C)C)CC(=O)N(C)[C@@H](CC3CC3)C(=O)N[C@@H]([C@@H](C)CC)C(=O)N(C)CC(=O)N(C)[C@H]3C/C=C\CCN(C3=O)[C@@H](Cc3ccc(C(F)(F)F)cc3)C(=O)N(C)CC(=O)N[C@@H](CCc3cc(F)c(C(F)(F)F)c(F)c3)C(=O)N2C1 (some centres unmarked) [PP1593] | A (a compound having 10 or more and less than 20 is denoted as A) | A (a compound having 10 or more and less than 20 is denoted as A) | – | – | – | – |
| – | – | 1.9 | 0.039 | CCO[C@@H]1C[C@H]2C(=O)NC3(CCC3)C(=O)N(C)[C@@H](C3CCCC3)C(=O)N(C)[C@H](C(=O)N(C)CC)CC(=O)N(C)[C@H]3CCCC/C=C/c4ccc(cc4)C[C@@H](C(=O)N(C)CC(=O)N[C@@H](CCc4ccc(C(F)(F)F)c(OC)c4)C(=O)N2C1)N1CC/C=C\C[C@@H](C1=O)N(C)C(=O)CN(C)C(=O)[C@H]([C@@H](C)CC)NC3=O [PP1828] | – | – | A (a compound having 10 or more and less than 20 is denoted as A) | B (a compound having 3 or more and less than 10 is denoted as B) | – | – |
| – | – | 9250 | 870 | CC[C@H](C)[C@@H]1NC(=O)[C@@H](CC(C)C)N(C)C(=O)CSC[C@H](C(=O)N(C)C)N(C)C(=O)[C@@H](C2CCCC2)N(C)C(=O)C2(CCCC2)NC(=O)[C@@H]2CCCN2C(=O)[C@H](CCc2cc(F)c(C(F)(F)F)c(F)c2)NC(=O)CN(C)C(=O)[C@H](Cc2ccc(C(F)(F)F)cc2)N2CC=CC[C@@H](C2=O)N(C)C(=O)CN(C)C1=O [PP3108] | – | – | – | – | C (A compound having a KD ratio of 0.1 or more and less than 3 is denoted as C) | B (a compound having 3 or more and less than 10 is denoted as B) |
